# According to patent US4418064A, “Chemotherapeutically active maytansinoids: treflorine, trenudine, and N-methyltrenudone” (priority 1982, dated 1983):
# Legend:
# [1] = tested on: lymphocytic leukemia P388; experiment: PS system, lymphocytic leukemia P388 in mice, NCI Protocol 1.200, survival; assay type: in vivo; conditions: i.p. once a day for 9 days
# Procedure: Another indication of fraction activity is the effectiveness in the PS system against lymphocytic leukemia P388 in mice. These assays are conducted according to the NCI Protocol 1.200 described in Geran et al., supra. Starting 24 hours after the tumor implantation, previously determined doses of each compound were injected intraperitoneally once a day for 9 days. Survival time of treated leukemic mice is compared to that of untreated mice (T/C×100). A T/C value of 100% indicates no activity. A T/C value greater than 100% means that the treated mice are surviving longer than the control mice. A compound giving a T/C value greater than 125% is indicative of activity as defined by the NCI Protocols, above.
# [2] = tested on: human epidermoid carcinoma of the mouth (KB); experiment: cells; conditions: for IC50: Homo sapiens, KB, 72 h, read-out: ED50; for KB cytotoxicity compared with that reported for maytansine, maytanbutine and others: compared with Kupchan, J. Med. Chem. 21, Table II
# Procedure: The KB Cell Culture Screen used in guiding the above-described fractionations was conducted in accordance with the National Cancer Institute (NCI) Protocol 1.600 [Geran et al., Cancer Chemother. Rep., Part 3, 3: 17 (1972)] in which the effectiveness of the test compounds against cultivated cells of human epidermoid carcinoma of the mouth was evaluated. […] Such a dose is referred to as ED50 and activity is indicated for ED50 levels of ≤30 μg./ml. The smaller the ED50 level, the more cytotoxic the test material.
# B16 melanocarcinoma = experiment: B1 system, B16 melanocarcinoma in mice, NCI Protocol 1.300; assay type: in vivo; conditions: i.p. once a day for 9 days, host sex M
# Procedure: The compounds were also evaluated in the B1 system against B16 melanocarcinoma in mice. This assay is conducted in accordance with the NCI Protocol 1.300 described in Geran et al., supra. Starting 24 hours after the tumor implantation, predetermined doses of the compound were injected intraperitoneally once a day for 9 days. The results are reported in Table VI below as the percent T/C.
# [3] = tested on: lymphocytic leukemia P388; conditions: cited from earlier work; for activity against lymphocytic leukemia P388: at the microgram per kilogram level, Wani et al.; for dosage level at which activity in the PS system was demonstrated: U.S. Pat. No. 4,313,946
# leukemia = conditions: Kupchan et al., J. Org. Chem. 42; cited from earlier work
# European corn borer = conditions: U.S. Pat. No. 4,315,929; cited from earlier work
# [4] = 4.00 μg./kg./inj., distilled water + alcohol, host sex M
# [5] = 8.00 μg./kg./inj., distilled water + alcohol, host sex M
# [6] = 16.00 μg./kg./inj., distilled water + alcohol, host sex M
# [7] = 32.00 μg./kg./inj., distilled water + alcohol, host sex M
# [8] = 4.00 μg./kg./inj., distilled water + alcohol
# [9] = 8.00 μg./kg./inj., distilled water + alcohol
# [10] = 16.00 μg./kg./inj., distilled water + alcohol
# [11] = 32.00 μg./kg./inj., distilled water + alcohol
compound,measurement,setting,value
COc1cc2cc(c1Cl)N1CC(=O)C(C)(O)C(=O)N(C)C(C)C(=O)O[C@@H](CC1=O)[C@]1(C)O[C@H]1[C@H](C)[C@@H]1C[C@@](O)(NC(=O)O1)[C@H](OC)/C=C/C=C(\C)C2OC (some centres unmarked) [N-methyltrenudone],T/C (%),[1]; [4],153%
same,T/C (%),[1]; [5],108%
same,T/C (%),[1]; [6],toxic
same,T/C (%),[1]; [7],toxic
same,IC50,[2],< 10 ng/mL
same,T/C (%),B16 melanocarcinoma; [8],109%
same,T/C (%),B16 melanocarcinoma; [9],93%
same,T/C (%),B16 melanocarcinoma; [10],111%
same,T/C (%),B16 melanocarcinoma; [11],95%
COc1cc2cc(c1Cl)N(C)C(=O)C[C@H](OC(=O)[C@H](C)N(C)C(=O)C(C)C)[C@]1(C)O[C@H]1[C@H](C)[C@@H]1C[C@@](O)(NC(=O)O1)[C@H](OC)/C=C/C=C(\C)C2OC(C)=O (some centres unmarked) [colubrinol acetate],activity against lymphocytic leukemia P388,[3],demonstrated activity
COc1cc2cc(c1Cl)N(C)C(=O)C[C@H](OC(=O)[C@H](C)N(C)C(=O)C(C)C)[C@]1(C)O[C@H]1[C@H](C)[C@@H]1C[C@@](O)(NC(=O)O1)[C@H](OC)/C=C/C=C(\C)C2O (some centres unmarked) [colubrinol],activity against lymphocytic leukemia P388,[3],demonstrated activity
C=C(C)C(=O)N(C)[C@@H](C)C(=O)O[C@H]1CC(=O)N(C)c2cc(cc(OC)c2Cl)C(OC)/C(C)=C/C=C/[C@@H](OC)[C@@]2(O)C[C@H](OC(=O)N2)[C@@H](C)[C@@H]2O[C@@]12C (some centres unmarked) [dehydrotrewiasine],dosage level at which activity in the PS system was demonstrated,[3],4 µg/kg
COc1cc2cc(c1Cl)N(C)C(=O)C[C@H](OC(=O)C(C)C)[C@]1(C)O[C@H]1[C@H](C)[C@@H]1C[C@@](O)(NC(=O)O1)[C@H](OC)/C=C/C=C(\C)C2OC(C)=O (some centres unmarked) [maytanbutacine],antileukemic activity,leukemia,antileukemic principle
COc1cc2cc(c1Cl)N1CCC(C)(O)C(=O)NC(C)C(=O)O[C@@H](CC1=O)[C@]1(C)O[C@H]1[C@H](C)[C@@H]1C[C@@](O)(NC(=O)O1)[C@H](OC)/C=C/C=C(\C)C2OC (some centres unmarked) [treflorine],T/C (%),[1]; [4],150%
same,T/C (%),[1]; [5],144%
same,T/C (%),[1]; [6],157%
same,T/C (%),[1]; [7],150%
same,IC50,[2],0.27 ng/mL
same,"KB cytotoxicity compared with that reported for maytansine, maytanbutine and others",[2],at least one order of magitude less
same,T/C (%),B16 melanocarcinoma; [8],130%
same,T/C (%),B16 melanocarcinoma; [9],160%
same,T/C (%),B16 melanocarcinoma; [10],162%
same,T/C (%),B16 melanocarcinoma; [11],178%
COc1cc2cc(c1Cl)N1CC(O)C(C)(O)C(=O)NC(C)C(=O)O[C@@H](CC1=O)[C@]1(C)O[C@H]1[C@H](C)[C@@H]1C[C@@](O)(NC(=O)O1)[C@H](OC)/C=C/C=C(\C)C2OC (some centres unmarked) [trenudine],T/C (%),"[1]; 2.00 μg./kg./inj., distilled water + alcohol, host sex F",144%
same,T/C (%),"[1]; 4.00 μg./kg./inj., distilled water + alcohol, host sex F",137%
same,T/C (%),"[1]; 8.00 μg./kg./inj., distilled water + alcohol, host sex F",146%
same,T/C (%),"[1]; 16.00 μg./kg./inj., distilled water + alcohol, host sex F",137%
same,T/C (%),"[1]; 32.00 μg./kg./inj., distilled water + alcohol, host sex F",toxic
same,IC50,[2],0.64 ng/mL
same,"KB cytotoxicity compared with that reported for maytansine, maytanbutine and others",[2],at least one order of magitude less
same,T/C (%),"B16 melanocarcinoma; 1.00 μg./kg./inj., distilled water + alcohol",137%
same,T/C (%),"B16 melanocarcinoma; 2.00 μg./kg./inj., distilled water + alcohol",147%
same,T/C (%),B16 melanocarcinoma; [8],145%
same,T/C (%),B16 melanocarcinoma; [9],176%
same,T/C (%),B16 melanocarcinoma; [10],197%
same,T/C (%),B16 melanocarcinoma; [11],toxic
"COc1cc2cc(c1Cl)N(C)C(=O)C[C@H](OC(=O)[C@H](C)N(C)C(=O)C(C)C)[C@]1(C)O[C@H]1[C@H](C)[C@@H]1C[C@@](O)(NC(=O)O1)[C@H](OC)/C=C/C=C(\C)C2OC (some centres unmarked) [trewiasine, reference compound]",control of the European corn borer,European corn borer,effective in controlling the European corn borer
same,T/C (%),"[1]; 4.00 μg./kg./inj., vehicle Klucel, host sex F",163%
same,T/C (%),"[1]; 8.00 μg./kg./inj., vehicle Klucel, host sex F",140%
same,T/C (%),"[1]; 16.00 μg./kg./inj., vehicle Klucel, host sex F",154%
same,T/C (%),"[1]; 32.00 μg./kg./inj., vehicle Klucel, host sex F",128%
same,T/C (%),"[1]; 64.00 μg./kg./inj., vehicle Klucel, host sex F",91%
same,dosage level at which activity in the PS system was demonstrated,[3],4 µg/kg
same,ED50,"[2]; dose that inhibits growth to 50% of control, 3 days after drug addition",0.2 ng/mL
same,T/C (%),"B16 melanocarcinoma; 1.00 μg./kg./inj., vehicle Klucel",133%
same,T/C (%),"B16 melanocarcinoma; 2.00 μg./kg./inj., vehicle Klucel",140%
same,T/C (%),"B16 melanocarcinoma; 4.00 μg./kg./inj., vehicle Klucel",157%
same,T/C (%),"B16 melanocarcinoma; 8.00 μg./kg./inj., vehicle Klucel",185%
same,T/C (%),"B16 melanocarcinoma; 16.00 μg./kg./inj., vehicle Klucel",172%
same,T/C (%),"B16 melanocarcinoma; 32.00 μg./kg./inj., vehicle Klucel",183%
